These results are taken from US10857105B2, “Compounds and compositions for intracellular delivery of therapeutic agents” (ModernaTX, Inc., priority 2017, dated 2020).

Series [1] in a line: Particle size and polydispersity index of nanoparticle compositions (Zetasizer Nano ZS). The series is classed as physicochemical. As to conditions: Table 1A; lipid:DSPC:cholesterol:PEG-DMG 50:10:38.5:1.5 mol %. A digest of the protocol:
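Formulations of ionizable lipid, DSPC, cholesterol and PEG-DMG (50:10:38.5:1.5 mol %) carrying Luc or hEPO mRNA with all uridines as N1-methyl pseudouridine. Dynamic light scattering in 1×PBS gave particle size and polydispersity; zeta potential read in 15 mM PBS.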

The subject of series [2] is modified luciferase. As to the kind of experiment: Luciferase expression in liver, lung, spleen and femur 6 hours after intravenous administration to mice. As to conditions: 6 hours after intravenous 0.5 mpk, mice. The series is classed as in vivo. A digest of the protocol:
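Mice (n=3) got a single 0.5 mpk IV dose of each nanoparticle composition, with MC3 and PBS controls alongside. Organ luminescence flux was read 6 h post-dose.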

Series [3] relates to IL-6, IP-10. As to the kind of experiment: Cytokine induction (IL-6, IP-10) in mice 6 hours after intravenous administration. The series is classed as in vivo. Set-up: unit not given here. As to conditions: intravenous 0.5 mpk. The source says: The introduction of foreign material into a mammalian body induces an innate immune response that promotes cytokine production. Such immune responses to, for example, nanoparticle compositions including therapeutic and/or prophylactics, are undesirable. The induction of certain cytokines is thus measured to evaluate the […] of nanoparticle compositions. The concentrations of various cytokines in mice upon intravenous administration of nanoparticle compositions presented in Table 1A at a dosage of 0.5 mpk was measured at 6 hours. The standard MC3 formulation and a PBS control were also tested. As is evident in Table 7, IL-6 induction was highest for compositions including Compounds 1, 3, 9, 19, and 26, while IP-10 induction was highest for compositions including Compounds 3, 4, 7, 20, and 26. IL-6 induction was lowest for compositions including Compounds 4, 11, 12, and 28. IP-10 induction was lowest for compositions including Compounds 10, 11, 12, 13, 15, 17, and 18.

Series [4] can be described thus: Encapsulation efficiency of RNA in nanoparticle compositions (RIBOGREEN assay). The series is classed as physicochemical. As to conditions: Table 1A; lipid:DSPC:cholesterol:PEG-DMG 50:10:38.5:1.5 mol %. A digest of the protocol: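 Lipid nanoparticles (ionisable lipid:DSPC:cholesterol:PEG-DMG 50:10:38.5:1.5 mol %) carrying N1-methylpseudouridine luciferase or hEPO mRNA diluted to about 5 μg/mL in TE, pH 7.5, with or without 2% Triton X-100, 15 min at 37° C. RiboGreen fluorescence (ex ~480, em ~520 nm) blank-subtracted; free RNA = intact/disrupted signal.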

Series [5] concerns luciferase (Luc) mRNA. Briefly: Luciferase expression (whole body bioluminescence) after intravenous administration to mice. The series is classed as in vivo. As to conditions: intravenous administration (Table 3D). The method, then: In order to monitor how effectively various nanoparticle compositions deliver therapeutic and/or prophylactics to targeted cells, different nanparticle compositions including a particular therapeutic and/or prophylactic (for example, a modified or naturally occurring RNA such as an mRNA) are prepared and administered to rodent populations. Mice are intravenously, intramuscularly, intraarterially, or intratumorally administered a single dose including a nanoparticle composition with a formulation such as those provided in Example 3. In some instances, mice may be made to inhale doses. Dose sizes may range from 0.001 mg/kg to 10 mg/kg, where 10 mg/kg describes a dose including 10 mg of a therapeutic and/or, prophylactic in a nanoparticle composition for each 1 kg of body mass of the mouse. A control composition including PBS may also be employed.
Upon administration of nanoparticle compositions to mice, dose delivery profiles, dose responses, and toxicity of particular formulations and doses thereof can be measured by enzyme-linked immunosorbent assays (ELISA), bioluminescent imaging, or other methods. For nanoparticle compositions including mRNA, time courses of protein expression can also be evaluated. Samples collected from the rodents for evaluation may include blood, sera, and tissue (for example, muscle tissue from the site of an intramuscular injection and internal tissue); sample collection may involve sacrifice of the animals.
The efficacy of the nanoparticle compositions presented in Table 1A was evaluated with a bioluminescence study. Formulations were administered intravenously to mice (n=6) at a dosage of 0.5 mg/kg (mpk) and bioluminescence measured at 3, 6, and 24 hour time points. The standard MC3 formulation and, in some instances, a control (e.g., a PBS control) were evaluated for comparison. […] In general, flux decreased as time progressed to less than 10% of the initial flux.
The total flux (measured by area under the curve, AUC) induced by administration of a formulation including a given lipid relative to that induced by administration of a formulation including MC3 was also measured for several lipids.

`CCCCCCCCCCCCCCCCCCN(CCO)CCCCCCCC(=O)OC(CCCCCCCC)CCCCCCCC` [Compound 1, Heptadecan-9-yl 8-((2-hydroxyethyl)(octadecyl)amino)octanoate]: in series [1], the Size came to 72.7 nm. Moreover, in series [2], the “Total Flux, Femur” value is reported as 7.52E+05; the “Total Flux, Liver” value was 4.02E+08; the “Total Flux, Lung” value is 1.72E+06; the “Total Flux, Spleen” value was determined as 4.27E+06. Further, in series [3], the “Cytokine induction, IL-6” value came out at 267.24 and the “Cytokine induction, IP-10” value worked out at 687.14.

In series [1], `CCCCCCCCCCCCCCN(CCO)CCCCCCCC(=O)OC(CCCCCCCC)CCCCCCCC` [Compound 2, Heptadecan-9-yl 8-((2-hydroxyethyl)(tetradecyl)amino)octanoate] returned a Size of 83.9 nm. In addition, the EE in series [4] was found to be 93.88%. In series [2], the “Total Flux, Femur” value is listed as 3.86E+06; the “Total Flux, Liver” value turned out to be 4.87E+09; the “Total Flux, Lung” value is recorded as 2.52E+07; the “Total Flux, Spleen” value was found to be 5.77E+07. In series [3], the “Cytokine induction, IL-6” value was 70.95 and the “Cytokine induction, IP-10” value was 468.86.

With `CCCCCCCCC(CCCCCCCC)OC(=O)CCCCCCCN(CCO)CCCCCCCC` [Compound 4, Heptadecan-9-yl 8-((2-hydroxyethyl)(octyl)amino)octanoate], in series [1], the Size was found to be 120.5 nm. The same molecule had an EE in series [4] of 95.10%. Moreover, in series [2], the “Total Flux, Liver” value amounted to 5.26E+09; the “Total Flux, Lung” value was found to be 6.22E+07; the “Total Flux, Spleen” value was found to be 4.09E+08. For the same molecule, in series [3], the “Cytokine induction, IL-6” value is given as 13.1375 and the “Cytokine induction, IP-10” value worked out at 2253.09.

Molecule `CCCCCCCCC(CCCCCCCC)OC(=O)CCCCCCCN(CCO)CCCCCC` [Compound 5, Heptadecan-9-yl 8-(hexyl(2-hydroxyethyl)amino)octanoate] gave an EE in series [4] of 77.07%. Further, in series [2], the “Total Flux, Femur” value stood at 1.22E+06; the “Total Flux, Liver” value was 5.84E+07; the “Total Flux, Lung” value came out at 1.89E+06; the “Total Flux, Spleen” value amounted to 1.55E+08. Besides, in series [3], the “Cytokine induction, IL-6” value amounted to 94.07 and the “Cytokine induction, IP-10” value worked out at 487.16.

In the case of `CCCCCCCCCOC(=O)CCCCCCCN(CCCCCCCC(=O)OC(CCCCCCCC)CCCCCCCC)CCOC(C)=O` [Compound 9, Heptadecan-9-yl 8-((2-acetoxyethyl)(8-(nonyloxy)-8-oxooctyl)amino) octanoate], in series [1], the Size is listed as 68.5 nm. In addition, in series [4], the EE is 75.7%. Further, in series [2], the “Total Flux, Femur” value is on record as 2.57E+04; the “Total Flux, Liver” value came to 4.30E+05; the “Total Flux, Lung” value was found to be 2.56E+04; the “Total Flux, Spleen” value came out at 5.51E+04. In series [3], the “Cytokine induction, IL-6” value is 317.45 and the “Cytokine induction, IP-10” value was found to be 366.53.

In series [1], `CCCCCCCCCOC(=O)CCCCCCCN(CCCCCCCC(=O)OC(CCCCCCCC)CCCCCCCC)CC(C)O` (centres unmarked) [Compound 10, Heptadecan-9-yl 8-((2-hydroxypropyl)(8-(nonyloxy)-8-oxooctyl)amino) octanoate] displayed a Size of 102.9 nm. The EE in series [4] turned out to be 89.60%. Moreover, in series [2], the “Total Flux, Femur” value is 5.09E+05; the “Total Flux, Liver” value amounted to 3.22E+08; the “Total Flux, Lung” value was found to be 8.85E+05; the “Total Flux, Spleen” value is listed as 8.17E+06. In series [3], the “Cytokine induction, IL-6” value is on record as 88.81 and the “Cytokine induction, IP-10” value was 138.16.

As for `CCCCCCCCCOC(=O)CCCCCCCN(CCCCCCCC(=O)OC(CCCCCCCC)CCCCCCCC)C[C@@H](C)O` [Compound 11, Heptadecan-9-yl (R)-8-((2-hydroxypropyl)(8-(nonyloxy)-8-oxooctyl)amino)octanoate], the Size in series [1] stood at 129.6 nm. In addition, the EE in series [4] is reported as 92.47%. In addition, in series [2], the “Total Flux, Liver” value was 8.03E+08; the “Total Flux, Lung” value is 1.35E+07; the “Total Flux, Spleen” value was determined as 1.04E+08. Further, in series [3], the “Cytokine induction, IL-6” value was 0.14 and the “Cytokine induction, IP-10” value stood at 44.84.

As to `CCCCCCCCCOC(=O)CCCCCCCN(CCCCCCCC(=O)OC(CCCCCCCC)CCCCCCCC)C[C@H](C)O` [Compound 12, Heptadecan-9-yl (S)-8-((2-hydroxypropyl)(8-(nonyloxy)-8-oxooctyl)amino)octanoate], the Size in series [1] is listed as 116.7 nm. The molecule further had an EE in series [4] of 92.44%. Moreover, in series [2], the “Total Flux, Liver” value worked out at 6.84E+08; the “Total Flux, Lung” value came out at 7.45E+06; the “Total Flux, Spleen” value amounted to 6.82E+07. In series [3], the “Cytokine induction, IL-6” value came out at 3.88 and the “Cytokine induction, IP-10” value was 32.03.

In series [1], `CCCCCCCCCOC(=O)CCCCCCCN(CCCCCCCC(=O)OC(CCCCCCCC)CCCCCCCC)CC(O)CC` (centres unmarked) [Compound 13, Heptadecan-9-yl 8-((2-hydroxybutyl)(8-(nonyloxy)-8-oxooctyl)amino) octanoate] yielded a Size of 79.4 nm. In series [4], this molecule registered an EE of 92.28%. In series [2], the “Total Flux, Femur” value is given as 1.35E+05; the “Total Flux, Liver” value stood at 2.25E+07; the “Total Flux, Lung” value was 2.21E+05; the “Total Flux, Spleen” value was 7.09E+05. Also, in series [3], the “Cytokine induction, IL-6” value is 29.07 and the “Cytokine induction, IP-10” value is 126.29.

In the case of `CCCCCCCCC(CCCCCCCC)OC(=O)CCCCCCCN(CCO)CCCCCCCC(=O)OCC1CC1CCCCCC` (centres unmarked) [Compound 28, Heptadecan-9-yl 8-((8-((2-hexylcyclopropyl)methoxy)-8-oxooctyl)(2-hydroxyethyl)amino)octanoate], the Size in series [1] is 99.4 nm. Besides, in series [2], the “Total Flux, Liver” value was determined as 1.22E+10; the “Total Flux, Lung” value is 2.17E+08; the “Total Flux, Spleen” value is reported as 1.80E+08. Besides, in series [3], the “Cytokine induction, IL-6” value is recorded as 17.47 and the “Cytokine induction, IP-10” value is recorded as 283.13.

`CCCCCC/C=C\COC(=O)CCCCCCCN(CCO)CCCCCCCC(=O)OC/C=C\CCCCCC` [Compound 139, Di((Z)-non-2-en-1-yl) 8,8′-((2-hydroxyethyl)azanediyl)dioctanoate] displayed an EE in series [4] of 78.2%. Further, in series [2], the “Total Flux, Femur” value was 5.12E+04; the “Total Flux, Liver” value is listed as 8.27E+05; the “Total Flux, Lung” value amounted to 5.26E+04; the “Total Flux, Spleen” value is 2.10E+06. In series [3], the “Cytokine induction, IL-6” value is listed as 23.57 and the “Cytokine induction, IP-10” value came out at 153.36.

In series [1], `CCCCCCCCCOC(=O)CCCCCCCN(CCCCCCCC(=O)OC(CCCCCCCC)CCCCCCCC)CCOCCO` [Compound 154, Heptadecan-9-yl 8-((2-(2-hydroxyethoxy)ethyl)(8-(nonyloxy)-8-oxooctyl)amino)octanoate] registered a Size of 92.9 nm. Further, the EE in series [4] was determined as 94.28%. The AUC in series [5] is 5.560E+010 p/s*h. In series [2], the “Total Flux, Liver” value is reported as 3.62E+08; the “Total Flux, Lung” value is 2.89E+06; the “Total Flux, Spleen” value stood at 1.30E+07.
